Measured values: ChEMBL document CHEMBL1201862, “PubChem BioAssay data set” (2004)
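Dose response: 5 concentrations. Exposure: 48 h. Format: 96-well plates. Endpoint: linear interpolation; highest concentration if not reached. GI50 is the concentration that inhibits growth by half.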 Active and inactive are the calls of the source. No stated cut-off is given here; in the data, active = GI50 up to about 1.1 µM and inactive = higher.

What was measured:
Experiment in all cases: NCI anticancer screen, dose series, 48 h
T47D = tested on: T47D
A498 = tested on: A498
MDA-MB-435 = tested on: MDA-MB-435
EKVX = tested on: EKVX
RPMI-8226 = tested on: RPMI-8226
TK-10 = tested on: TK-10
CCRF-CEM = tested on: CCRF-CEM
HT-29 = tested on: HT-29
UACC-62 = tested on: UACC-62
HCT-116 = tested on: HCT-116
MDA-MB-231 = tested on: MDA-MB-231
M14 = tested on: M14
Hs-578T = tested on: Hs-578T
MDA-N = tested on: MDA-N
HOP-62 = tested on: HOP-62
786-0 = tested on: 786-0
DU-145 = tested on: DU-145
HL-60 = tested on: HL-60
NCI-H23 = tested on: NCI-H23

Compound | GI50 (T47D) | GI50 (A498) | GI50 (MDA-MB-435) | GI50 (EKVX) | GI50 (RPMI-8226) | GI50 (TK-10) | GI50 (CCRF-CEM) | GI50 (HT-29) | GI50 (UACC-62) | GI50 (HCT-116) | GI50 (MDA-MB-231) | GI50 (M14) | GI50 (Hs-578T) | GI50 (MDA-N) | GI50 (HOP-62) | GI50 (786-0) | GI50 (DU-145) | GI50 (HL-60) | GI50 (NCI-H23)
Cc1nc2ccc(S(=O)(=O)O)cc2c(=O)n1-c1ccc(C(=O)NN2C(=O)C(Cl)C2c2cccs2)cc1 (centres undefined) | 31.3 µM (inactive) | > 100 µM (inactive) | 27.5 µM (inactive) | 18.5 µM (inactive) | > 100 µM (inactive) | > 100 µM (inactive) | 63.1 µM (inactive) | > 100 µM (inactive) | > 100 µM (inactive) | > 100 µM (inactive) | 22.9 µM (inactive) | 18.2 µM (inactive) | > 100 µM (inactive) | 26.1 µM (inactive) | 23.1 µM (inactive) | > 100 µM (inactive) | > 100 µM (inactive) | 17.8 µM (inactive) | > 100 µM (inactive)
C=C1C(=O)O[C@H]2[C@H]([C@H](C)CCCC(C)=O)O[C@H]([C@@]3(C)CCC(=O)O3)C[C@@H]12 | 76 µM (inactive) | > 100 µM (inactive) | 38.5 µM (inactive) | 79.3 µM (inactive) | 31.8 µM (inactive) | 17.7 µM (inactive) | 26.9 µM (inactive) | 90.2 µM (inactive) | 66.5 µM (inactive) | 22.3 µM (inactive) | > 100 µM (inactive) | 33.9 µM (inactive) | 29.2 µM (inactive) | 53.1 µM (inactive) | > 100 µM (inactive) | 35.2 µM (inactive) | 40.6 µM (inactive) | 41.7 µM (inactive) | 43.4 µM (inactive)
CN(C)c1ccc(/N=N/c2ccncc2)cc1 | > 100 µM (inactive) | > 100 µM (inactive) | 28.8 µM (inactive) | 18.5 µM (inactive) | 47.1 µM (inactive) | > 100 µM (inactive) | > 100 µM (inactive) | 95.1 µM (inactive) | 87.5 µM (inactive) | > 100 µM (inactive) | > 100 µM (inactive) | > 100 µM (inactive) | > 100 µM (inactive) | 46 µM (inactive) | > 100 µM (inactive) | > 100 µM (inactive) | > 100 µM (inactive) | > 100 µM (inactive) | > 100 µM (inactive)
CC(C)(C)c1cc(/C=C(\C#N)C2=NCCO2)cc(C(C)(C)C)c1O | 2.64 µM (inactive) | 3.84 µM (inactive) | 4.47 µM (inactive) | 4.99 µM (inactive) | 1.86 µM (inactive) | 3.48 µM (inactive) | 2.4 µM (inactive) | 3.2 µM (inactive) | 4.31 µM (inactive) | 3.07 µM (inactive) | 3.14 µM (inactive) | 5.02 µM (inactive) | 5.09 µM (inactive) | 4.42 µM (inactive) | 4.3 µM (inactive) | 3.28 µM (inactive) | 4.94 µM (inactive) | 2.12 µM (inactive) | 3.44 µM (inactive)
COC(=O)[C@H]1CO[C@@H](C(C)(C)C)N1C(=O)N1C=CC(=O)C[C@@H]1C | > 100 µM (inactive) | > 100 µM (inactive) | > 100 µM (inactive) | > 100 µM (inactive) | > 100 µM (inactive) | > 100 µM (inactive) | > 100 µM (inactive) | > 100 µM (inactive) | > 100 µM (inactive) | > 100 µM (inactive) | > 100 µM (inactive) |  | > 100 µM (inactive) | > 100 µM (inactive) | > 100 µM (inactive) | > 100 µM (inactive) | > 100 µM (inactive) | > 100 µM (inactive) | > 100 µM (inactive)
O=C1C2C(C(=O)N1c1ccccc1)C1(c3ccccc3)CCC2(C(=O)c2ccccc2)O1 (centres undefined) | > 10 µM (inactive) | > 10 µM (inactive) | > 10 µM (inactive) | > 10 µM (inactive) | > 10 µM (inactive) | > 10 µM (inactive) | > 10 µM (inactive) | > 10 µM (inactive) | > 10 µM (inactive) | > 10 µM (inactive) | > 10 µM (inactive) | > 10 µM (inactive) | > 10 µM (inactive) | > 10 µM (inactive) | > 10 µM (inactive) | > 10 µM (inactive) | > 10 µM (inactive) | > 10 µM (inactive) | > 10 µM (inactive)
N#C/C(N)=C(C#N)/N=C/NCCO | > 100 µM (inactive) | > 100 µM (inactive) | > 100 µM (inactive) | > 100 µM (inactive) | > 100 µM (inactive) | > 100 µM (inactive) | > 100 µM (inactive) | > 100 µM (inactive) | > 100 µM (inactive) | > 100 µM (inactive) | > 100 µM (inactive) | > 100 µM (inactive) | > 100 µM (inactive) | > 100 µM (inactive) | > 100 µM (inactive) | > 100 µM (inactive) | > 100 µM (inactive) | > 100 µM (inactive) | > 100 µM (inactive)
N#CC(C#N)=Cc1ccc(C=C2SC3=C(SCCS3)S2)s1 | > 100 µM (inactive) | 10.4 µM (inactive) | 0.82 µM (active) | > 100 µM (inactive) | 0.881 µM (active) | 2.07 µM (inactive) | 2.48 µM (inactive) | 3.39 µM (inactive) | 2.89 µM (inactive) | 3.24 µM (inactive) | 33.7 µM (inactive) | 12.4 µM (inactive) | 41.6 µM (inactive) | 0.618 µM (active) | 80.9 µM (inactive) | 13.4 µM (inactive) | > 100 µM (inactive) | 0.286 µM (active) | 6.68 µM (inactive)
Cc1ccc(S(=O)(=O)n2cc(C=O)c(-c3cn(S(=O)(=O)c4ccc(C)cc4)cc3-c3cn(S(=O)(=O)c4ccc(C)cc4)cc3C=O)c2)cc1 | 28 µM (inactive) | > 100 µM (inactive) | 44.8 µM (inactive) | 16.7 µM (inactive) | 8.36 µM (inactive) | 20.9 µM (inactive) | 17.9 µM (inactive) | 36.2 µM (inactive) | 48.1 µM (inactive) | 28 µM (inactive) | > 100 µM (inactive) | 29.6 µM (inactive) | > 100 µM (inactive) | 75.2 µM (inactive) | > 100 µM (inactive) | 35.8 µM (inactive) | 69.3 µM (inactive) | 25.4 µM (inactive) | 23.7 µM (inactive)
Cc1cc(N(CCOS(C)(=O)=O)CCOS(C)(=O)=O)ccc1/C=N/c1ccc(-c2csc(-c3ccc(Br)cc3)n2)cc1 | 10.9 µM (inactive) | 2.11 µM (inactive) | 17.2 µM (inactive) | 6.24 µM (inactive) | 16 µM (inactive) | 7.57 µM (inactive) | 1.12 µM (inactive) | 7.06 µM (inactive) | 3.66 µM (inactive) | 27.5 µM (inactive) | 15.5 µM (inactive) | 9.08 µM (inactive) | 35.6 µM (inactive) | 14.7 µM (inactive) | 4.58 µM (inactive) | 1.84 µM (inactive) | 1.91 µM (inactive) | 2.58 µM (inactive) | 5.07 µM (inactive)
